Measured values: patent publication US7420056B2, “Substituted bicyclic imidazo-3-ylamine compounds” (Gruenenthal GmbH, priority 2004, dated 2008)
Where a name gives a salt, the structure may show the parent alone.

Target: mGluR5 receptor (Sus scrofa, UniProt I3LUI7)
Test: Affinity for the mGluR5 receptor: inhibition of 3[H]-MPEP binding in pig brain homogenate
Conditions: 3[H]-MPEP binding
Procedure, shortened: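 Test compounds were screened at 10 μM for displacement of 5 nM [3H]-MPEP from pig brain homogenate (450 μg protein, pH 8.0 Hepes buffer) over 60 min at room temperature. After filtration, scintillation counting gave the read-out. 10 μM unlabelled MPEP set nonspecific binding.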

Sequence of mGluR5 receptor (I3LUI7 19-1212): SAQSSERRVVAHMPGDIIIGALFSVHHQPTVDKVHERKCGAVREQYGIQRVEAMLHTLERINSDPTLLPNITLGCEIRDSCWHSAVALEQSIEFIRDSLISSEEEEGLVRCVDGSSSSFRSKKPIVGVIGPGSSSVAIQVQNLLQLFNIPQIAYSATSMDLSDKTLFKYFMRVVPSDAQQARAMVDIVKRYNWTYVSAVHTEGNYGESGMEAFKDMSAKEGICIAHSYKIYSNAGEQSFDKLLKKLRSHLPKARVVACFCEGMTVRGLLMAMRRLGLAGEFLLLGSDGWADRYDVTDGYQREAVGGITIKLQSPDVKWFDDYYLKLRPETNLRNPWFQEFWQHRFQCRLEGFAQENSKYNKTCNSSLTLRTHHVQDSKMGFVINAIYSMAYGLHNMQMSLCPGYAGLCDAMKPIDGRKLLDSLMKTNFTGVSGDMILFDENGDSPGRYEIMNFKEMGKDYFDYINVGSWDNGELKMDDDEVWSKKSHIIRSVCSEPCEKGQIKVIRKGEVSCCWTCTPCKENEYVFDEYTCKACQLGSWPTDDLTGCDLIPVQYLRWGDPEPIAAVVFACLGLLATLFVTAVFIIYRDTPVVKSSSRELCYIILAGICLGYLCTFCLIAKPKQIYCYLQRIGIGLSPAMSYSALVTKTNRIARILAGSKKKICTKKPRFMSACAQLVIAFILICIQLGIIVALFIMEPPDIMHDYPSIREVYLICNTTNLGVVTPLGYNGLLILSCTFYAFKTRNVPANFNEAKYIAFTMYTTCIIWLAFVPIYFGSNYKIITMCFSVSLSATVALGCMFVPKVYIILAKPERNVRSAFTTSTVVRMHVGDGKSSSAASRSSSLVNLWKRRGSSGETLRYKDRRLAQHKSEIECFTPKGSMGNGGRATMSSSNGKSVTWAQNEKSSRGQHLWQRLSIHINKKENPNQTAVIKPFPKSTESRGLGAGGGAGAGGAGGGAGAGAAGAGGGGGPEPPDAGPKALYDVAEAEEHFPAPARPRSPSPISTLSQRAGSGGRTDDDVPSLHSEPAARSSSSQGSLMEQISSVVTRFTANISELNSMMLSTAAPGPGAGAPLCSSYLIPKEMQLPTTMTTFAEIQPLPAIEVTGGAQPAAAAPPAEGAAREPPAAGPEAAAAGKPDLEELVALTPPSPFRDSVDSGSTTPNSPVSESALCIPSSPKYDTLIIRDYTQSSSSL

| IC50 [µM] | SMILES |
| --- | --- |
| 1.37 | CC(C)(C)Nc1c(-c2cccc(C#Cc3ccccn3)c2)nc2cnccn12 [Example 111, N-tert-butyl-2-(3-(pyridin-2-ylethynyl)phenyl)imidazo[1,2-a]pyrazin-3-amine] |
| 7.52 | COc1ccccc1C#Cc1ccc(-c2nc3cnccn3c2NC(C)(C)C)s1 [Example 112, N-tert-butyl-2-(5-((2-methoxyphenyl)ethynyl)thiophen-2-yl)imidazo[1,2-a]pyrazin-3-amine hydrochloride] |
| 0.075 | COc1cccc(C#Cc2ccc(-c3nc4cnccn4c3NC(C)(C)C)s2)c1 [Example 113, N-tert-butyl-2-(5-((3-methoxyphenyl)ethynyl)thiophen-2-yl)imidazo[1,2-a]pyrazin-3-amine hydrochloride] |
| 2.11 | COc1ccc(C#Cc2ccc(-c3nc4cnccn4c3NC(C)(C)C)s2)cc1 [Example 114, N-tert-butyl-2-(5-((4-methoxyphenyl)ethynyl)thiophen-2-yl)imidazo[1,2-a]pyrazin-3-amine hydrochloride] |
| 7.74 | CC(C)(C)Nc1c(-c2ccc(C#Cc3ccccc3)s2)nc2ccc3ccccc3n12 [Example 115, N-tert-butyl-2-(5-(phenylethynyl)thiophen-2-yl)imidazo[1,2-a]quinolin-1-amine] |
| 0.88 | Cc1cccc(C#Cc2cccc(-c3nc4cnccn4c3NC(C)(C)C)c2)n1 [Example 117, N-tert-butyl-2-(3-((6-methylpyridin-2-yl)ethynyl)phenyl)imidazo[1,2-a]pyrazin-3-amine] |
| 6.38 | Cc1nc(C#Cc2ccccc2)ccc1-c1nc2cnccn2c1NC(C)(C)C [Example 118, N-tert-butyl-2-(2-methyl-6-(phenylethynyl)pyridin-3-yl)imidazo[1,2-a]pyrazin-3-amine] |
| 0.036 | CC(C)(C)Nc1c(-c2ccc(C#Cc3ccccn3)o2)nc2cnccn12 [Example 119, N-tert-butyl-2-(5-(pyridin-2-ylethynyl)furan-2-yl)imidazo[1,2-a]pyrazin-3-amine] |
| 3.63 | CC(C)(C)Nc1c(-c2ccc(C#Cc3ccccc3)s2)nc2c(C(=O)O)nccn12 [Example 120, 3-(tert-butylamino)-2-(5-(phenylethynyl)thiophen-2-yl)imidazo[1,2-a]pyrazine-8-carboxylic acid] |
| 2.54 | CC(C)(C)Nc1c(-c2ccc(C#Cc3ccc(O)cc3)s2)nc2cnccn12 [Example 121, 4-((5-(3-(tert-butylamino)imidazo[1,2-a]pyrazin-2-yl)thiophen-2-yl)ethynyl)phenol hydrochloride] |
| 0.13 | CC(C)(C)Nc1c(-c2ccc(C#Cc3cccc(O)c3)s2)nc2cnccn12 [Example 122, 3-((5-(3-(tert-butylamino)imidazo[1,2-a]pyrazin-2-yl)thiophen-2-yl)ethynyl)phenol] |
| 0.014 | CC(C)(C)Nc1c(-c2ccc(C#Cc3cccc(N)c3)s2)nc2cnccn12 [Example 123, 2-(5-((3-aminophenyl)ethynyl)thiophen-2-yl)-N-tert-butylimidazo[1,2-a]pyrazin-3-amine hydrochloride] |
| 0.17 | CC(C)(C)Nc1c(-c2ccc(C#Cc3ccccc3N)s2)nc2cnccn12 [Example 124, 2-(5-((2-aminophenyl)ethynyl)thiophen-2-yl)-N-tert-butylimidazo[1,2-a]pyrazin-3-amine hydrochloride] |
| 6.52 | CC(C)(C)Nc1c(-c2ccc(C#Cc3ccccc3)s2)nc2c3ccccc3ccn12 [Example 125, N-tert-butyl-2-(5-(phenylethynyl)thiophen-2-yl)imidazo[2,1-a]isoquinolin-3-amine] |
| 3.25 | CC(C)(C)Nc1c(-c2ccc(C#Cc3ccccc3)nc2)nc2cnccn12 [Example 126, N-tert-butyl-2-(6-(phenylethynyl)pyridin-3-yl)imidazo[1,2-a]pyrazin-3-amine] |
| 15.6 | CC(C)(C)Nc1c(-c2ccc(C#Cc3ccc(N)nc3)s2)nc2cnccn12 [Example 128, 2-(5-((6-aminopyridin-3-yl)ethynyl)thiophen-2-yl)-N-tert-butylimidazo[1,2-a]pyrazin-3-amine hydrochloride] |
| 0.012 | CC(C)(C)Nc1c(-c2ccc(C#Cc3ncccn3)s2)nc2cnccn12 [Example 129, N-tert-butyl-2-(5-(pyrimidin-2-ylethynyl)thiophen-2-yl)imidazo[1,2-a]pyrazin-3-amine hydrochloride] |
| 0.037 | Cc1ccnc(C#Cc2ccc(-c3nc4cnccn4c3NC(C)(C)C)s2)c1 [Example 130, N-tert-butyl-2-(5-((4-methylpyridin-2-yl)ethynyl)thiophen-2-yl)imidazo[1,2-a]pyrazin-3-amine hydrochloride] |
| 0.14 | Cc1ccc(C#Cc2ccc(-c3nc4cnccn4c3NC(C)(C)C)s2)nc1 [Example 131, N-tert-butyl-2-(5-((5-methylpyridin-2-yl)ethynyl)thiophen-2-yl)imidazo[1,2-a]pyrazin-3-amine hydrochloride] |
| 0.016 | CC(C)(C)Nc1c(-c2ccc(C#Cc3ccncc3)s2)nc2ccccn12 [Example 132, N-tert-butyl-2-(5-(pyridin-4-ylethynyl)thiophen-2-yl)imidazo[1,2-a]pyridin-3-amine hydrochloride] |

| IC50 [µM] | SMILES |
| --- | --- |
| 0.015 | CC(C)(C)Nc1c(-c2ccc(C#Cc3nccs3)s2)nc2cnccn12 [Example 133, N-tert-butyl-2-(5-(thiazol-2-ylethynyl)thiophen-2-yl)imidazo[1,2-a]pyrazin-3-amine] |
| 0.57 | Nc1c(-c2ccc(C#Cc3ccccn3)s2)nc2cnccn12 [Example 134, 2-(5-(pyridin-2-ylethynyl)thiophen-2-yl)imidazo[1,2-a]pyrazin-3-amine hydrochloride] |
| 1.2 | Cc1ccc(C#Cc2ccc(-c3nc4cnccn4c3NC(C)(C)C)s2)s1 [Example 135, N-tert-butyl-2-(5-((5-methylthiophen-2-yl)ethynyl)thiophen-2-yl)imidazo[1,2-a]pyrazin-3-amine hydrochloride] |
| 13.8 | CC(C)(C)Nc1c(-c2ccc(C#Cc3cccc(N)n3)s2)nc2cnccn12 [Example 136, 2-(5-((6-aminopyridin-2-yl)ethynyl)thiophen-2-yl)-N-tert-butylimidazo[1,2-a]pyrazin-3-amine hydrochloride] |
| 0.86 | Cc1ccsc1C#Cc1ccc(-c2nc3cnccn3c2NC(C)(C)C)s1 [Example 137, N-tert-butyl-2-(5-((3-methylthiophen-2-yl)ethynyl)thiophen-2-yl)imidazo[1,2-a]pyrazin-3-amine] |
| 15.1 | CC(C)(C)Nc1c(-c2nc(C#Cc3ccccc3)cs2)nc2cnccn12 [Example 138, N-tert-butyl-2-(4-(phenylethynyl)thiazol-2-yl)imidazo[1,2-a]pyrazin-3-amine] |
| 0.071 | Cc1cccc(C#Cc2ccc(-c3nc4cnccn4c3NC(C)(C)C)s2)c1 [Example 139, N-tert-butyl-2-(5-(m-tolylethynyl)thiophen-2-yl)imidazo[1,2-a]pyrazin-3-amine] |
| 0.026 | CC(C)(C)Nc1c(-c2ccc(C#Cc3cccc(C#N)c3)s2)nc2cnccn12 [Example 140, 3-((5-(3-(tert-butylamino)imidazo[1,2-a]pyrazin-2-yl)thiophen-2-yl)ethynyl)benzonitrile hydrochloride] |
| 0.0028 | CC(C)(C)Nc1c(-c2ccc(C#Cc3ccccn3)s2)nc2ncccn12 [Example 141, N-tert-butyl-2-(5-(pyridin-2-ylethynyl)thiophen-2-yl)imidazo[1,2-a]pyrimidin-3-amine] |
| 0.0032 | CN(c1c(-c2ccc(C#Cc3ccccn3)s2)nc2cnccn12)C(C)(C)C [Example 143, N-tert-butyl-N-methyl-2-(5-(pyridin-2-ylethynyl)thiophen-2-yl)imidazo[1,2-a]pyrazin-3-amine] |
| 3.68 | CC(C)(C)Nc1c(-c2ccc(C#Cc3ccc(C#N)cc3)s2)nc2cnccn12 [Example 144, 4-((5-(3-(tert-butylamino)imidazo[1,2-a]pyrazin-2-yl)thiophen-2-yl)ethynyl)benzonitrile hydrochloride] |
| 0.035 | CC(C)(C)Nc1c(-c2cnc(C#Cc3ccccc3)s2)nc2cnccn12 [Example 146, N-tert-butyl-2-(2-(phenylethynyl)thiazol-5-yl)imidazo[1,2-a]pyrazin-3-amine] |
| 0.33 | CC(C)(C)Nc1c(-c2ccc(C#Cc3cccc(-n4cccc4)c3)s2)nc2cnccn12 [Example 148, 2-(5-((3-(1H-pyrrol-1-yl)phenyl)ethynyl)thiophen-2-yl)-N-tert-butylimidazo[1,2-a]pyrazin-3-amine hydrochloride] |
| 0.11 | CC(C)(C)Nc1c(-c2ccc(C#Cc3cccc([N+](=O)[O-])c3)s2)nc2cnccn12 [Example 150, N-tert-butyl-2-(5-((3-nitrophenyl)ethynyl)thiophen-2-yl)imidazo[1,2-a]pyrazin-3-amine hydrochloride] |
| 0.023 | CC(C)(C)Nc1c(-c2ccc(C#Cc3cscn3)s2)nc2cnccn12 [Example 152, N-tert-butyl-2-(5-(thiazol-4-ylethynyl)thiophen-2-yl)imidazo[1,2-a]pyrazin-3-amine hydrochloride] |
| 2.99 | CC(C)(C)Nc1c(-c2ccc(C#Cc3ccccc3O)s2)nc2cnccn12 [Example 153, 2-((5-(3-(tert-butylamino)imidazo[1,2-a]pyrazin-2-yl)thiophen-2-yl)ethynyl)phenol] |
| 0.59 | CC(C)(C)Nc1c(-c2ccc(C#Cc3cccc(CN)c3)s2)nc2cnccn12 [Example 154, 2-(5-((3-(aminomethyl)phenyl)ethynyl)thiophen-2-yl)-N-tert-butylimidazo[1,2-a]pyrazin-3-amine] |
| 0.027 | CC(C)(C)Nc1c(-c2ccc(C#Cc3ccsc3)s2)nc2cnccn12 [Example 156, N-tert-butyl-2-(5-(thiophen-3-ylethynyl)thiophen-2-yl)imidazo[1,2-a]pyrazin-3-amine hydrochloride] |
| 1.55 | CN(C)c1cccc(C#Cc2ccc(-c3nc4cnccn4c3NC(C)(C)C)s2)c1 [Example 157, N-tert-butyl-2-(5-((3-(dimethylamino)phenyl)ethynyl)thiophen-2-yl)imidazo[1,2-a]pyrazin-3-amine hydrochloride] |
